From publication PMC6105164 (Cancer Chemotherapy and Pharmacology, 2018)

Key:
[1] = system: patients with KRAS mutations; settings: previous phase II trial; cited from earlier work
[2] = clinical; settings: human, in vivo; for AUC(0-t): AUC12h
Procedure: This trial was a multiple-ascending dose trial in 28-day cycles. The doses used were 100, 200, 400, 600, 800, and 1000 mg. The initial dose (100 mg) was determined in accordance with the International Conference on Harmonisation of Technical Requirements for Registration of Pharmaceuticals for Human Use-S9 guideline. […] Patients received only the morning dose on day 1 for pharmacokinetics evaluation. […] Grades were determined according to the National Cancer Institute Common Terminology Criteria for Adverse Events (NCI-CTCAE v.4.0).
Blood samples were collected 10 times on day 1 (before drug administration, and 0.5-, 1-, 1.5-, 2-, 4-, 6-, 8-, 12-, and 24-h post-administration), once on days 4, 7, and 14, and 9 times on day 21 (before morning dose, and 0.5, 1, 1.5, 2, 4, 6, 8, and 12 h after morning dose but before evening dose). Urine samples were collected from patients who received 200, 600, or 1000 mg on day 1 (before drug administration, and 0–6-, 6–12-, 12–24-h post-administration).

## CC(C)=CCC/C(C)=C/CC/C(C)=C/CSc1ccccc1C(=O)O [Salirasib, S-trans, trans-farnesylthiosalicylic acid]
[1]
  partial response (PR): no patients achieved PR
[2]
  dose at which Cmax and AUCinf were maximal: 800 mg
  dose proportionality of Cmax and AUC12h (power model analyses): increased proportionally and in dose-dependent manners
  half-life: 3.5 to 9.11 h
  mean Cmax across dose groups: 1180 to 4870 ng/mL
  time to Cmax, median, across dose groups: 2.10 to 4.05 h
[2]; 100 mg
  AUC(0-inf): 4970 ± 1600 ng·h/mL
  CL/F, mean ± SD: 21.6 ± 6.80 L/h
  half-life: 3.81 ± 0.25 h
  tmax, Range: 1.52 to 3.88 h
[2]; 100 mg, mean ± SD
  AUC(0-t): 4700 ± 1490 ng·h/mL
[2]; 100 mg, Cmax, mean ± SD
  Cmax: 1340 ± 473 ng/mL
[2]; 200 mg
  AUC12h, mean ± SD: 10,500 ± 4450 ng h/mL
  AUC(0-inf): 11400 ng·h/mL
  CL/F, mean ± SD: 19.1 ± 7.35 L/h
  Cmax, mean ± SD: 2830 ± 822 ng/mL
  half-life: 4.16 ± 1.13 h
  tmax, Range: 2.13 to 4.00 h
[2]; 200 mg, mean ± SD
  AUC(0-t): 10400 ng·h/mL
[2]; 200 mg, Cmax, mean ± SD
  Cmax: 2610 ± 837 ng/mL
[2]; 400 mg
  AUC12h, mean ± SD: 14,800 ± 3520 ng h/mL
  AUC(0-inf): 20300 ng·h/mL
  CL/F, mean ± SD: 20.1 ± 3.83 L/h
  Cmax, mean ± SD: 3630 ± 876 ng/mL
  half-life: 4 ± 1.88 h
[2]; 400 mg, mean ± SD
  AUC(0-t): 18000 ng·h/mL
[2]; 400 mg, Cmax, mean ± SD
  Cmax: 3250 ± 1440 ng/mL
[2]; 600 mg
  AUC12h, mean ± SD: 18,700 ± 4710 ng h/mL
  AUC(0-inf): 18500 ng·h/mL
  CL/F, mean ± SD: 33.0 ± 5.25 L/h
  Cmax, mean ± SD: 4500 ± 1580 ng/mL
  half-life: 3.5 ± 0.39 h
  tmax, Range: 1.42 to 4.00 h
[2]; 600 mg, mean ± SD
  AUC(0-t): 16900 ng·h/mL
[2]; 600 mg, Cmax, mean ± SD
  Cmax: 4870 ± 2390 ng/mL
[2]; 600 mg, Median
  Tmax: 2.1 h
[2]; 600 mg, Range
  Tmax: 2 to 4 h
[2]; 800 mg
  AUC12h, mean ± SD: 16,300 ± 6240 ng h/mL
  AUC(0-inf): 26600 ng·h/mL
  CL/F, mean ± SD: 30.7 ± 4.55 L/h
  Cmax, mean ± SD: 4790 ± 1100 ng/mL
  dose proportionality of Cmax and AUCinf (power model analyses): increased proportionally until 400 mg in dose-dependent manners
  half-life: 3.67 ± 0.81 h
  tmax, Range: 2.02 to 5.93 h
[2]; 800 mg, mean ± SD
  AUC(0-t): 23800 ng·h/mL
[2]; 800 mg, Cmax, mean ± SD
  Cmax: 3840 ± 2090 ng/mL
[2]; 800 mg, Median
  Tmax: 2.98 h
[2]; 800 mg, Range
  Tmax: 1.42 to 5.98 h
[2]; 1000 mg
  AUC12h, mean ± SD: 15,700 ± 9100 ng h/mL
  Cmax, mean ± SD: 4990 ± 1210 ng/mL
  half-life: 9.11 ± 9.79 h
[2]; 1000 mg, mean ± SD
  AUC(0-t): 22400 ng·h/mL
[2]; 1000 mg, Cmax, mean ± SD
  Cmax: 2630 ± 1450 ng/mL
[2]; 1000 mg, Range
  Tmax: 2 to 3.97 h
[2]; mean Cmax across dose groups
  Cmax: 1340 to 4990 ng/mL
[2]; po, 100 mg, mean ± SD
  AUC(0-t): 4610 ng·h/mL
[2]; po, 100 mg, Cmax, mean ± SD
  Cmax: 1180 ng/mL
[2]; po, 1000 mg
  AUC(0-inf): 26900 ng·h/mL
